# Measured values taken from US20250313574A1, “SIALIC ACID DERIVATIVES AND METHODS OF USING SAME” (EISAI R&D MANAGEMENT CO., LTD., priority 2022, published 2025).
# Key:
# [1] = biological target: Recombinant human CD33 protein (Homo sapiens (Human), UniProt P20138); assay: CD33 competitive binding assay for HTS drug screen (fluorescent multivalent sialic acid probe)
# In short: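 Recombinant human CD33, coated overnight at 4° C from 10 μg/ml in pH 5.5 acetate, was preincubated briefly with compound. It was then exposed to a multivalent neutravidin/FITC/sialic acid analog A-375 probe (final 5 μM neutravidin, 15 μM A-375, 5 μM FITC) for 30 min at room temperature. After washing, bound FITC fluorescence was read.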
# [2] = biological target: Recombinant Human Siglec-3/CD33 protein (His-CD33) (Homo sapiens (Human), UniProt P20138); assay: Differential scanning fluorimetry (DSF) thermal shift assay; assay type: binding
# [3] = thermal melt shift of 0.5 μM CD33 protein with 50 μM compound
# [4] = difference in thermal melt of CD33 protein (0.5 μM) with 50 μM compound
# Chain of Recombinant human CD33 protein (P20138 18-259): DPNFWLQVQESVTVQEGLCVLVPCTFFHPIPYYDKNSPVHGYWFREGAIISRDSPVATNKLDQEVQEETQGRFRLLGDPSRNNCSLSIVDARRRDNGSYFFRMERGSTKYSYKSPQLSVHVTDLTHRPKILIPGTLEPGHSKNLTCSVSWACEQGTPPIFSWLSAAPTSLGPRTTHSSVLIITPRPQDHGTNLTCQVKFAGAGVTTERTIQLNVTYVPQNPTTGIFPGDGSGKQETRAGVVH
# Chain of Recombinant Human Siglec-3/CD33 protein (His-CD33) (P20138 18-259): as above
EC50 [1],"DSF (dTmD) [2, 3]","DSF (dTmD) [2, 4]",SMILES
119 nM,10.1,–,CC(=O)N[C@H]1[C@H]([C@H](O)[C@H](O)CNC(=O)c2cc(C)cc(C)c2)O[C@@](CCN2CCOC[C@@]23CCN(C(=O)OC(C)(C)C)C3)(C(=O)O)C[C@@H]1O [A-190]
163 nM,9.4,–,CC(=O)N[C@H]1[C@H]([C@H](O)[C@H](O)CNC(=O)c2cc(C)c(=O)n(C)c2)O[C@@](CCN2CCOC[C@@]23CCN(C(=O)OC(C)(C)C)C3)(C(=O)O)C[C@@H]1O [A-191]
47 nM,12.1,–,CC(=O)N[C@H]1[C@H]([C@H](O)[C@H](O)CNC(=O)c2cc(C)c(F)c(C)c2)O[C@@](CCN2CCOC[C@@]23CCN(C(=O)OC(C)(C)C)C3)(C(=O)O)C[C@@H]1O [A-192]
26 nM,11.7,–,CC(=O)N[C@H]1[C@H]([C@H](O)[C@H](O)CNC(=O)c2cc(C)c(O)c(C)c2)O[C@@](C/C=C/C2CCN(C(=O)OC(C)(C)C)C2)(C(=O)O)C[C@@H]1O (some centres unmarked) [A-194]
42 nM,10.8,–,CC(=O)N[C@H]1[C@H]([C@H](O)[C@H](O)CNC(=O)c2cc(C)c(O)c(C)c2)O[C@@](C/C=C/C2(C)CCN(C(=O)OC(C)(C)C)C2)(C(=O)O)C[C@@H]1O (some centres unmarked) [A-195]
257 nM,7.7,–,CC(=O)N[C@H]1[C@H]([C@H](O)[C@H](O)CNC(=O)c2cc(C)c(O)c(C)c2)O[C@@](CCCC2(C)CCN(C(=O)OC(C)(C)C)C2)(C(=O)O)C[C@@H]1O (some centres unmarked) [A-196]
131 nM,–,8.7 °C,CC(=O)N[C@H]1[C@H]([C@H](O)[C@H](O)CNC(=O)c2cc(C)c(O)c(C)c2)O[C@@](CCN2CCOC[C@@]23CCN(C(=O)OC(C)(C)C)C3)(C(=O)O)C[C@]1(C)O [A-200]
1720 nM,–,6.2 °C,CC(=O)N[C@H]1[C@H]([C@H](O)[C@H](O)CNC(=O)c2cc(C)c(O)c(C)c2)O[C@@](CCN2CCOC[C@@]23CCN(C(=O)OC(C)(C)C)C3)(C(=O)O)C[C@@]1(C)O [A-201]
311 nM,–,5.46 °C,Cc1cc(C(=O)NC[C@@H](O)[C@@H](O)[C@H]2C[C@@H](O)C[C@](CCN3CCOC[C@@]34CCN(C(=O)OC(C)(C)C)C4)(C(=O)O)O2)cc(C)c1O [A-202]
582 nM,–,5.0 °C,CC(=O)N[C@H]1[C@H]([C@H](O)[C@](C)(O)CNC(=O)c2cc(C)c(O)c(C)c2)O[C@@](CCN2CCOC[C@@]23CCN(C(=O)OC(C)(C)C)C3)(C(=O)O)C[C@@H]1O [A-204]
1820 nM,–,3.5 °C,CC(=O)N[C@H]1[C@H]([C@H](O)[C@@](C)(O)CNC(=O)c2cc(C)c(O)c(C)c2)O[C@@](CCN2CCOC[C@@]23CCN(C(=O)OC(C)(C)C)C3)(C(=O)O)C[C@@H]1O [A-205]
> 100000 nM,–,0.1 °C,"COC(=O)[C@@]1(CCN2CCOC[C@@]23CCN(C(=O)OC(C)(C)C)C3)CCC[C@H](C[C@H](O)CNC(=O)c2cc(C)c3[nH]ccc3c2)O1 [A-206, tert-butyl (S)-6-(2-((2S,6R)-6-((S)-2-hydroxy-3-(7-methyl-1H-indole-5-carboxamido)propyl)-2-(methoxycarbonyl)tetrahydro-2H-pyran-2-yl)ethyl)-9-oxa-2,6-diazaspiro[4.5]decane-2-carboxylate]"
3750 nM,–,5.0 °C,COC(=O)[C@@]1(CCN2CCOC[C@@]23CCN(C(=O)OC(C)(C)C)C3)CCC[C@H](C[C@H](O)CNC(=O)c2cc(C)c3[nH]ccc3c2)O1 [A-207]

# Further lines, the molecule ahead of its results:
SMILES,EC50 [1],"DSF (dTmD) [2, 3]","DSF (dTmD) [2, 4]"
CNC(=O)c1c(C)cc(C(=O)NC[C@@H](O)[C@@H](O)[C@@H]2O[C@@](CCN3CCOC[C@@]34CCN(C(=O)OC(C)(C)C)C4)(C(=O)O)C[C@H](O)[C@H]2NC(C)=O)cc1C [A-164],1560 nM,5.3,–
COc1cc(C(=O)NC[C@@H](O)[C@@H](O)[C@@H]2O[C@@](CCN3CCOC[C@@]34CCN(C(=O)OC(C)(C)C)C4)(C(=O)O)C[C@H](O)[C@H]2NC(C)=O)ccc1C#N [A-165],1140 nM,5.7,–
CC(=O)N[C@H]1[C@H]([C@H](O)[C@H](O)CNC(=O)c2cc(F)c(C(F)(F)F)c(F)c2)O[C@@](CCN2CCOC[C@@]23CCN(C(=O)OC(C)(C)C)C3)(C(=O)O)C[C@@H]1O [A-166],4000 nM,6.9,–
CC(=O)N[C@H]1[C@H]([C@H](O)[C@H](O)CNC(=O)c2ccc(C(F)(F)F)c(C(F)(F)F)c2)O[C@@](CCN2CCOC[C@@]23CCN(C(=O)OC(C)(C)C)C3)(C(=O)O)C[C@@H]1O [A-167],3340 nM,7.9,–
CC(=O)N[C@H]1[C@H]([C@H](O)[C@H](O)CNC(=O)c2cc(C(F)(F)F)cc(C(F)(F)F)c2)O[C@@](CCN2CCOC[C@@]23CCN(C(=O)OC(C)(C)C)C3)(C(=O)O)C[C@@H]1O [A-168],1970 nM,8.3,–
CC(=O)N[C@H]1[C@H]([C@H](O)[C@H](O)CNC(=O)c2cccc(SC(F)(F)F)c2)O[C@@](CCN2CCOC[C@@]23CCN(C(=O)OC(C)(C)C)C3)(C(=O)O)C[C@@H]1O [A-169],4720 nM,6.2,–
CC(=O)N[C@H]1[C@H]([C@H](O)[C@H](O)CNC(=O)c2ccc(=O)n(C)c2)O[C@@](CCN2CCOC[C@@]23CCN(C(=O)OC(C)(C)C)C3)(C(=O)O)C[C@@H]1O [A-170],3870 nM,6.0,–
CC(=O)N[C@H]1[C@H]([C@H](O)[C@H](O)CNC(=O)c2ccc(=O)[nH]c2)O[C@@](CCN2CCOC[C@@]23CCN(C(=O)OC(C)(C)C)C3)(C(=O)O)C[C@@H]1O [A-171],10300 nM,3.6,–
CC(=O)N[C@H]1[C@H]([C@H](O)[C@H](O)CNC(=O)c2cc(Br)ccc2F)O[C@@](CCN2CCOC[C@@]23CCN(C(=O)OC(C)(C)C)C3)(C(=O)O)C[C@@H]1O [A-172],820 nM,7.6,–
CC(=O)N[C@H]1[C@H]([C@H](O)[C@H](O)CNC(=O)c2cn(C)nc2C(F)(F)F)O[C@@](CCN2CCOC[C@@]23CCN(C(=O)OC(C)(C)C)C3)(C(=O)O)C[C@@H]1O [A-174],1170 nM,6.6,–
CC(=O)N[C@H]1[C@H]([C@H](O)[C@H](O)CNC(=O)c2c[nH]nc2C(F)(F)F)O[C@@](CCN2CCOC[C@@]23CCN(C(=O)OC(C)(C)C)C3)(C(=O)O)C[C@@H]1O [A-175],4110 nM,4.6,–
CC(=O)N[C@H]1[C@H]([C@H](O)[C@H](O)CNC(=O)c2cnn(C)c2)O[C@@](CCN2CCOC[C@@]23CCN(C(=O)OC(C)(C)C)C3)(C(=O)O)C[C@@H]1O [A-177],670 nM,7.5,–
CC(=O)N[C@H]1[C@H]([C@H](O)[C@H](O)CNC(=O)c2ccc3[nH]nnc3c2)O[C@@](CCN2CCOC[C@@]23CCN(C(=O)OC(C)(C)C)C3)(C(=O)O)C[C@@H]1O [A-178],146 nM,9.5,–
CC(=O)N[C@H]1[C@H]([C@H](O)[C@H](O)CNC(=O)c2cc(-c3csc(C)n3)on2)O[C@@](CCN2CCOC[C@@]23CCN(C(=O)OC(C)(C)C)C3)(C(=O)O)C[C@@H]1O [A-179],217 nM,7.7,–
CC(=O)N[C@H]1[C@H]([C@H](O)[C@H](O)CNC(=O)c2ccc(C)c(C)c2)O[C@@](CCN2CCOC[C@@]23CCN(C(=O)OC(C)(C)C)C3)(C(=O)O)C[C@@H]1O [A-180],74 nM,10.9,–
CC(=O)N[C@H]1[C@H]([C@H](O)[C@H](O)CNC(=O)c2cccc(C)c2)O[C@@](CCN2CCOC[C@@]23CCN(C(=O)OC(C)(C)C)C3)(C(=O)O)C[C@@H]1O [A-181],70 nM,10.9,–
CC(=O)N[C@H]1[C@H]([C@H](O)[C@H](O)CNC(=O)c2cccc(Cl)c2)O[C@@](CCN2CCOC[C@@]23CCN(C(=O)OC(C)(C)C)C3)(C(=O)O)C[C@@H]1O [A-182],73 nM,11.7,–
CC(=O)N[C@H]1[C@H]([C@H](O)[C@H](O)CNC(=O)c2cccc(N(C)C)c2)O[C@@](CCN2CCOC[C@@]23CCN(C(=O)OC(C)(C)C)C3)(C(=O)O)C[C@@H]1O [A-183],173 nM,10.3,–
CC(=O)Nc1ccc(C(=O)NC[C@@H](O)[C@@H](O)[C@@H]2O[C@@](CCN3CCOC[C@@]34CCN(C(=O)OC(C)(C)C)C4)(C(=O)O)C[C@H](O)[C@H]2NC(C)=O)cc1 [A-184],1090 nM,6.0,–
CC(=O)N[C@H]1[C@H]([C@H](O)[C@H](O)CNC(=O)c2cc(F)c(F)c(F)c2)O[C@@](CCN2CCOC[C@@]23CCN(C(=O)OC(C)(C)C)C3)(C(=O)O)C[C@@H]1O [A-185],3600 nM,5.0,–
CC(=O)N[C@H]1[C@H]([C@H](O)[C@H](O)CNC(=O)c2ccc(Cl)c(Cl)c2)O[C@@](CCN2CCOC[C@@]23CCN(C(=O)OC(C)(C)C)C3)(C(=O)O)C[C@@H]1O [A-186],127 nM,10.8,–
CC(=O)N[C@H]1[C@H]([C@H](O)[C@H](O)CNC(=O)c2ccccc2)O[C@@](CCN2CCOC[C@@]23CCN(C(=O)OC(C)(C)C)C3)(C(=O)O)C[C@@H]1O [A-187],1010 nM,6.8,–
CC(=O)N[C@H]1[C@H]([C@H](O)[C@H](O)CNC(=O)c2cc(C)on2)O[C@@](CCN2CCOC[C@@]23CCN(C(=O)OC(C)(C)C)C3)(C(=O)O)C[C@@H]1O [A-188],2080 nM,4.5,–
CC(=O)N[C@H]1[C@H]([C@H](O)[C@H](O)CNC(=O)c2cnc(O)c(C)c2)O[C@@](CCN2CCOC[C@@]23CCN(C(=O)OC(C)(C)C)C3)(C(=O)O)C[C@@H]1O [A-189],150 nM,9.8,–
